# Assay results as given in ChEMBL document CHEMBL3044886, “Chemoselective synthesis, antiproliferative activities, and SAR study of 1H-pyrazol-5-yl-N,N-dimethylformamidines and pyrazolyl-2-azadienes” (2012).
# Key:
# Type in all cases: functional
# [1] = Growth inhibition of Homo sapiens (human) NPC-TW01 cells after 72 hr by MTT assay; details: NPC-TW01, 72 h
# NCI-H226 = assay: Growth inhibition of Homo sapiens (human) NCI-H226 cells after 72 hr by MTT assay; details: NCI-H226, 72 h
# Jurkat = assay: Growth inhibition of Homo sapiens (human) Jurkat cells after 72 hr by MTT assay
SMILES,GI50 (NCI-H226) [µM],GI50 (Jurkat) [µM],GI50 [1] [µM]
CN(C)/C=N/c1cc(-c2ccccc2)nn1-c1ccccc1,> 100,> 100,> 100
Cc1ccc(-c2cc(/N=C/N(C)C)n(-c3cccc(Cl)c3)n2)cc1,80.9,> 100,> 100
CN(C)/C=N/c1cc(-c2ccc(Cl)cc2)nn1-c1cccc(Cl)c1,75.6,74.5,92.7
Nc1c(C=O)c(-c2ccc(Cl)cc2)nn1-c1cccc(Cl)c1,79.7,78.9,> 100
Cc1ccc(-c2nn(-c3ccc(Br)cc3)c(N)c2C=O)cc1,8.5,34.4,28.2
Nc1cc(-c2ccc(Cl)cc2)nn1-c1cccc(Cl)c1,75.1,> 100,> 100
Cc1ccc(-c2cc(N)n(-c3ccc(Br)cc3)n2)cc1,54.3,45,80.2
Nc1cc(-c2ccc(Cl)cc2)nn1-c1ccc(Br)cc1,58.7,61.3,64.4
Cc1ccc(-c2nn(-c3cccc(Cl)c3)c(/N=C/N(C)C)c2C=O)cc1,8.9,7.8,7.2
CN(C)/C=N/c1c(C=O)c(-c2ccc(Cl)cc2)nn1-c1cccc(Cl)c1,9.2,7.7,7.4
Cc1ccc(-c2nn(-c3ccc(Br)cc3)c(/N=C/N(C)C)c2C=O)cc1,8.2,6.7,6

# The next lines start with results.
GI50 (NCI-H226) [µM],GI50 (Jurkat) [µM],SMILES,GI50 [1] [µM]
31.4,,CN(C)/C=N/c1c(C=O)c(-c2ccccc2)nn1-c1ccccc1,9.3
62.9,38.9,CN(C)/C=N/c1c(C=O)c(-c2ccc(Cl)cc2)nn1-c1ccc(Br)cc1,> 100
73.9,> 100,Cc1ccc(-c2cc(/N=C/N(C)C)n(-c3ccc(Br)cc3)n2)cc1,> 100
59.8,84.9,CN(C)/C=N/c1cc(-c2ccc(Cl)cc2)nn1-c1ccc(Br)cc1,60.7
> 100,87.3,Nc1c(C=O)c(-c2ccccc2)nn1-c1ccccc1,> 100
71.8,86.3,Cc1ccc(-c2nn(-c3cccc(Cl)c3)c(N)c2C=O)cc1,> 100
49.1,90.7,Nc1c(C=O)c(-c2ccc(Cl)cc2)nn1-c1ccc(Br)cc1,59.7
72.2,83,Nc1cc(-c2ccccc2)nn1-c1ccccc1,> 100
63.5,56.6,Cc1ccc(-c2cc(N)n(-c3cccc(Cl)c3)n2)cc1,> 100
